{
  "source": "patent US20240408053A1",
  "about": "“ENTERITIS-SUPPRESSING COMPOSITION” (KOBE GAKUIN EDUCATIONAL FOUNDATION, priority 2021, published 2024)",
  "key": {"[1]": {"test_system": "fecal mucin", "assay": "Amount of fecal mucin of mice", "assay_type": "in vivo", "conditions": "group ES: 2.0% v/v ethanol diet + 2.5 mg sesaminol per day oral, 4 weeks, vs group E; level similar to group C", "from_the_text": "The effect of oral administration of sesaminol on the amount of mucus secretion in mouse colon was examined by measuring the amount of fecal mucin of the mice in each group (groups C, E, S, and ES) and the amount of secretory immunoglobulin A (sIgA) in the colon tissue of the mice.\nFecal samples were each freeze-dried overnight in a freeze-drying equipment and then formed into a powder. After weighing each of the dried, powdered feces, fecal mucin was quantified according to the product protocol of a reagent kit for measuring fecal mucin (Fecal Mucin Assay Kit, produced by Cosmo Bio Co., Ltd.), and converted to the mucin amount (ug) per amount of dry feces (g). The results were evaluated."}, "[2]": {"test_system": "IL-6", "assay": "IL-6 expression in colon tissue (qRT-PCR, ELISA)", "assay_type": "in vivo, mice", "conditions": "group ES: 2.0% v/v ethanol diet + 2.5 mg sesaminol per day oral, 2 weeks, vs group E; higher than group C", "from_the_text": "(§1) It has been reported that chronic consumption of an excessive amount of ethanol can induce inflammation associated with tumor formation in colon tissue. Therefore, in order to verify whether oral administration of sesaminol has a preventive effect on ethanol-induced colitis, the expression levels of inflammatory cytokines (TNF-α and IL-6) and chemokine (MCP-1) in the large intestinal lamina propria of the mice in the four groups (groups C, S, E, and ES) were examined by qRT-PCR and ELISA. The NF-κB activity in the mice in the four groups was also examined. NF-κB is a transcription factor that is involved in expression of genes regulating inflammation and is activated by exposure of immune cells to pro-inflammatory factors.\nTotal RNA was extracted from colon tissue samples. […]\nA colon tissue sample (100 mg) was homogenized in 1 mL of an M-PER mammalian protein extraction reagent (Pierce) containing a diluent of a protease inhibitor cocktail (Nacalai Tesque, Inc.), and the resulting homogenate was centrifuged at 20,000× g at 4° C. for 15 minutes. The protein concentration of the supernatant was measured with a protein assay reagent (Bio-Rad Laboratories, Inc.), and equal amounts of proteins were used for analysis of the expression levels of TNF-α, IL-6, and MCP-1 by ELISA."}, "[3]": {"assay": "Amount of short-chain fatty acids in mouse feces (GC-FID)", "assay_type": "in vivo, mice", "conditions": "4 weeks", "method": "Short-chain fatty acids are metabolites of intestinal bacteria. The amounts of short-chain fatty acids (acetic acid, propionic acid, and butyric acid) in feces of the mice in each group (groups C, E, S, and ES) were measured.\nThe amounts of short-chain fatty acids in the mouse feces were measured by outsourcing to TechnoSuruga Laboratory Co., Ltd.\nImmediately after collection, mouse feces was treated with liquid nitrogen and stored at −80° C. While the fecal samples were frozen, an amount of 100 mg was crushed with beads and formed into a powder, and components extracted with ethyl acetate treatment were used as detection samples. For the measurement, a gas-chromatography-flame ionization detector system (Agilent 7890B GC, produced by Agilent technologies) was used, and the concentration of each short-chain fatty acid was calculated by comparison with the amount of standard substance."}, "[4]": {"test_system": "MDA+HAE", "assay": "Lipid peroxide measurement (MDA+HAE) in colon tissue", "assay_type": "in vivo, mice", "conditions": "group ES: 2.0% v/v ethanol diet + 2.5 mg sesaminol per day oral, 2 weeks; group E highest", "method": "Lipid peroxidation is used as an indicator of oxidative stress in cells and tissues; lipid peroxides produce MDA and HAE upon degradation. Therefore, the MDA+HAE level in colon tissue was examined as a marker of lipid peroxidation response.\nA colon tissue sample (100 mg) was homogenized in 1 mL of 20 mM phosphate buffered saline (pH of 7.4) with a homogenizer and centrifuged at 3,000× g at 4° C. for 10 minutes. The resulting precipitate was examined for malondialdehyde (MDA) and 4-hydroxyalkenals (HAE) using a lipid peroxide assay kit (Oxford Biomedical Research, Inc.)."}, "[5]": {"test_system": "ethanol-induced lesion in mouse liver", "assay": "HE or Oil Red O staining of liver sections (ethanol-induced alcoholic steatohepatitis)", "assay_type": "in vivo, mice", "conditions": "group ES: 2.0% v/v ethanol diet + 2.5 mg sesaminol per day oral, 4 weeks; group E significant increase", "from_the_text": "Additionally, liver sections of the mice in each group (groups C, E, S, and ES) were stained with HE or Oil Red 0, and observed under a microscope.\nLiver tissue samples were each fixed in a 10% v/v neutral formaldehyde solution overnight at room temperature and paraffin-embedded. The liver tissue sections were then stained with HE reagent, and frozen tissue sections were stained with Oil Red O reagent. Each stained specimen was observed under a microscope and subjected to image analysis."}, "[6]": {"test_system": "NF-κB p65", "assay": "NF-κB p65 activation level in colon tissue extract by ELISA", "assay_type": "in vivo, mice", "conditions": "group ES: 2.0% v/v ethanol diet + 2.5 mg sesaminol per day oral, 2 weeks, vs group E", "from_the_text": "as §1"}, "[7]": {"assay": "AST and ALT activities and TG concentration in the plasma, 4 weeks", "assay_type": "in vivo, mice", "conditions": "mean ±SD", "method": "The liver function and plasma lipid level in the mice in each group were examined by measuring the percentage of the liver weight relative to the body weight, the triglyceride (TG) concentration in the liver, the aspartate aminotransferase (AST) activity in the plasma, the alanine aminotransferase (ALT) activity in the plasma, and the TG concentration in the plasma of the mice in each group.\nThe AST and ALT activities and TG concentration in the plasma were measured according to the product protocol using dedicated reagent kits for each test item (L-Type Wako AST, L-Type Wako ALT, and L-Type Wako TG M, produced by FUJIFILM Wako Pure Chemical Corporation)."}, "[8]": {"conditions": "group ES: 2.0% v/v ethanol diet + 2.5 mg sesaminol per day oral"}, "[9]": {"conditions": "EtOH (2.0% v/v) + Sesaminol group ES"}},
  "note": "Entries after “also recorded” stand apart in the source; their conditions may differ. Marks after values point to notes of the source that are not given here.",
  "data": [
    {"smiles": "Oc1cc2c(cc1C1OCC3C(c4ccc5c(c4)OCO5)OCC13)OCO2", "note": "(stereo not drawn) [Sesaminol]", "values": [
      {"measurement": "amount of fecal mucin", "setting": "[1]", "result": "significantly higher than that in group E"},
      {"measurement": "expression level of IL-6 (mRNA by qRT-PCR, protein by ELISA)", "setting": "[2]", "result": "significantly lower than those in group E"},
      {"measurement": "acetic acid in the feces", "setting": "[3]; [8]", "result": "significant increase"},
      {"measurement": "propionic acid in the feces", "setting": "[3]; [8]", "result": "significant increase"},
      {"measurement": "amount of butyric acid in the feces", "setting": "[3]; group ES: 2.0% v/v ethanol diet + 2.5 mg sesaminol per day oral, group E significant decrease", "result": "increase in the amount of butyric acid to the same level as that in group C"},
      {"measurement": "amount of short-chain fatty acids (acetic acid, propionic acid, butyric acid) in the feces", "setting": "[3]; group S: 2.5 mg sesaminol per day oral, no ethanol, vs all other groups", "result": "significant increase in the amount of short-chain fatty acids in the feces compared with all the other groups"},
      {"measurement": "MDA+HAE level in colon tissue", "setting": "[4]", "result": "next highest value; also recorded: slightly higher than those of group C and group S"},
      {"measurement": "lipid droplets in Oil Red O-stained liver tissue", "setting": "[5]", "result": "decrease in lipid droplets"},
      {"measurement": "NF-κB p65 activation level", "setting": "[6]", "result": "significantly lower than that in group E"},
      {"measurement": "Plasma ALT", "setting": "[7]; [9]", "result": "45.8 ± 6.6*^, †, ### U/L"},
      {"measurement": "Plasma AST", "setting": "[7]; [9]", "result": "43.5 ± 7.6", "unit": "U/L"},
      {"measurement": "Plasma TG", "setting": "[7]; [9]", "result": "0.65 ± 0.13", "unit": "mmol/L"},
      {"measurement": "Plasma ALT", "setting": "[7]; Sesaminol (2.5 mg/d) group S", "result": "33.3 ± 5.7", "unit": "U/L"},
      {"measurement": "Plasma AST", "setting": "[7]; Sesaminol (2.5 mg/d) group S", "result": "41.3 ± 6.8", "unit": "U/L"},
      {"measurement": "Plasma TG", "setting": "[7]; Sesaminol (2.5 mg/d) group S", "result": "0.53 ± 0.14", "unit": "mmol/L"}
    ]}
  ]
}
